# US12351574B2, “Selective ligands for modulation of GIRK channels” (Northeastern University, priority 2018, dated 2025)
# Biological target: T1, GIRK1/4 (Homo sapiens, UniProt P48544+P48549)
# T1 sequence (P48549 1-501): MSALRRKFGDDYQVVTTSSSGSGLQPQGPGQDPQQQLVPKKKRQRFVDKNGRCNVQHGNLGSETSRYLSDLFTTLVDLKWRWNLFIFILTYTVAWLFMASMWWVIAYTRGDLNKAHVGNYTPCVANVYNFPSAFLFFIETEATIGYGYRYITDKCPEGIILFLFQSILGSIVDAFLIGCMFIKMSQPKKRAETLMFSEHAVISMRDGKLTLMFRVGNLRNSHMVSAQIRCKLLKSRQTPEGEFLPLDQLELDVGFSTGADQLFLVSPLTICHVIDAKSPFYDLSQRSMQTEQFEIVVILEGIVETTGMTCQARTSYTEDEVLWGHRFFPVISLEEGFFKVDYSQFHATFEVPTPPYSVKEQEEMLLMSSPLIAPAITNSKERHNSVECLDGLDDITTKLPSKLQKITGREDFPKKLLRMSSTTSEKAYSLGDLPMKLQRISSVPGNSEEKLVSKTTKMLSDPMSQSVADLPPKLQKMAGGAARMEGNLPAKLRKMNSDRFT
# T1 sequence (P48544 1-419): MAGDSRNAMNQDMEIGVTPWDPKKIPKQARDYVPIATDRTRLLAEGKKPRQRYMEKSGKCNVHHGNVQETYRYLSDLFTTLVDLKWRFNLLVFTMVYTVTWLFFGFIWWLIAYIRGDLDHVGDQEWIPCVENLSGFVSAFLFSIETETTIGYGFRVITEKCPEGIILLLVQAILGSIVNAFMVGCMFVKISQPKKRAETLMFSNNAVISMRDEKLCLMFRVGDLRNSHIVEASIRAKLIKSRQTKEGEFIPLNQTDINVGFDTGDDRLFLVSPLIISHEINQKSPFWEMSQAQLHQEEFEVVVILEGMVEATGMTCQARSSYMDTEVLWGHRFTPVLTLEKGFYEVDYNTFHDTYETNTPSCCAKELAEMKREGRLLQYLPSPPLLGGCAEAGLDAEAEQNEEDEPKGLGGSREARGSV
# Experiment: current inhibition by light-activated phosphatase 5-ptaseOCRL, HEK293 whole-cell patch-clamp, GIRK1/4
# Format: cell-based
# Design: expressed in transfected cells
# Settings: HEK-293 cells
# Source text: The inventors next pursued whole-cell patch-clamp experiments to further validate the model predictions and excised-patch results. Expression of a light-activated phosphatase that upon exposure to blue light dephosphorylates PI(4,5)P2 to PI(4)P and inhibits GIRK currents allowed recording of macroscopic currents in the absence and presence of ML297 and the two brain-specific GAT compounds. […] Since GAT1508 and ML297 only bind GIRK1 or GIRK1-like (i.e. “FD-containing”, “FD”=mimics the contribution of GIRK1 residues F137 and D173, see Example 2) subunits resulting in corresponding changes in channel-PIP2 interactions and channel activity, the inventors next sought to compare channel subunit specific interactions with PIP2 for subunits bound to the ligand (P-FD) versus those not bound to the ligand (P-WT) (FIGS. 19, 38A).
# Culture of HEK293 cells: HEK293-T cells were obtained from ATCC and maintained in DMEM medium supplemented with 10% FBS and 1% penicillin and streptomycin (Hyclone). For patch-clamp studies, cells were seeded on glass coverslips and transfected 24-hours later using a polyethylenimine solution (1 mg/ml) at a ratio of 8 μl per μg of DNA. To study GIRK-currents, cells were transfected with 0.75 μg each of plasmids encoding GIRK1, GIRK2 or GIRK4 as indicated. In the optogenetic experiments, cells were co-transfected with plasmids encoding 5-ptaseOCRL and CIBN-CAAX, as previously described. 5-ptaseOCRL and CIBN-CAAX were a kind gift from the DeCamilli lab, Yale CT. All experiments were performed at room temperature 24-36 hours post transfection. […]
# Patch-clamp recording: Whole-cell currents were recorded with an Axopatch 200B amplifier (Molecular Devices) controlled via a USB-interface (National Instruments) using WinWCP software (University of Strathclyde). […] The barium-sensitive component of the current, observed when cells were perfused with the high-K^+ buffer, was analyzed and was determined by perfusing 5 mM BaCl2 in the high-K^+ buffer at the end of each experiment. […]
row,protection of GIRK1/4 currents from inhibition by the light-activated phosphatase (in words),SMILES
1,not,"Cc1cc(NC(=O)Nc2ccc(Br)s2)n(-c2ccccc2)n1 [GAT1508, 1-(5-bromothiophen-2-yl)-3-(3-methyl-1-phenyl-1H-pyrazol-5-yl)urea]"
2,not,"Cc1cc(NC(=O)Nc2ccc(C)s2)n(-c2ccccc2)n1 [GAT1521, 1-(3-methyl-1-phenyl-1H-pyrazol-5-yl)-3-(5-methylthiophen-2-yl)urea]"
3,some protection,"Cc1cc(NC(=O)Nc2ccc(F)c(F)c2)n(-c2ccccc2)n1 [ML297, reference compound]"
